Source: US11109593B2, “Isoxazolin-5-one derivative and herbicide containing same as active ingredient” (HOKKO CHEMICAL INDUSTRY CO., LTD., priority 2017, dated 2021)

Columns and labels:
Type in all cases: in vivo
[1] = tested on: Echinochloa crus-galli; experiment: Test Example 1: herbicidal effect test by treatment of rice paddy soil (immediately after seeding); conditions: 120 g/10a active ingredient, dry weight vs untreated area, 14 days after treatment
Procedure, shortened: (§1)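 Flooded paddy pot test in a glass greenhouse: emulsion diluted in water, dropped at 120 g a.i. per 10 ares just after sowing, water depth kept about 3 cm. Dry-weight reduction relative to untreated plants is scored at 14 days.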

[2] = tested on: Scirpus juncoides; experiment: as above; conditions: 120 g/10a active ingredient, dry weight vs untreated area, 14 days after treatment
Procedure, shortened: as §1

[3] = tested on: broad leaf weeds (Lindernia pyxidaria and Monochoria vaginalis); experiment: as above; conditions: 120 g/10a active ingredient, dry weight vs untreated area, 14 days after treatment
Procedure, shortened: as §1

[4] = tested on: Echinochloa crus-galli; experiment: Test Example 2: herbicidal effect test by treatment during growing period in paddy rice cultivation (seven days after seeding); conditions: 120 g/10a active ingredient, assessed 14 days after treatment, dry weight vs untreated area
Procedure, shortened: (§2)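 Greenhouse flooded-pot test, seeds sown in puddled paddy soil; emulsion applied into water 7 d after seeding, 120 g a.i./10 a. Dry-weight-based herbicidal rate at 14 d, n=2.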

[5] = tested on: Scirpus juncoides; experiment: as above; conditions: 120 g/10a active ingredient, assessed 14 days after treatment, dry weight vs untreated area
Procedure, shortened: as §2

[6] = tested on: broad leaf weeds (Lindernia pyxidaria and Monochoria vaginalis); experiment: as above; conditions: 120 g/10a active ingredient, assessed 14 days after treatment, dry weight vs untreated area
Procedure, shortened: as §2

[7] = tested on: Amaranthus viridis; experiment: Test Example 3: herbicidal effect test by treatment of dry field farming soil (one day after seeding); conditions: 120 g/10a active ingredient, evaluated 14 days after treatment
Procedure, shortened: (§3)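 Compound emulsions are sprayed on the soil surface one day after sowing (120 g a.i. per 10 ares) before weeds emerge. Effect is expressed as percent dry-weight reduction versus untreated controls 14 days post-treatment.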

[8] = tested on: Chenopodium album; experiment: as above; conditions: 120 g/10a active ingredient, evaluated 14 days after treatment
Procedure, shortened: as §3

[9] = tested on: Echinochloa crus-galli; experiment: as above; conditions: 120 g/10a active ingredient, evaluated 14 days after treatment
Procedure, shortened: as §3

[10] = tested on: southern crabgrass; experiment: as above; conditions: 120 g/10a active ingredient, evaluated 14 days after treatment
Procedure, shortened: as §3

[11] = tested on: Amaranthus viridis; experiment: Test Example 4: herbicidal effect test by treatment of leave and stem in dry field farming (seven days after seeding); conditions: 120 g/10a active ingredient; emulsion sprayed seven days after seeding; evaluated 14 days after treatment
Procedure, shortened: (§4)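 Duplicate pots were scored 14 days post-spray by dry weight, herbicidal rate = {1 − treated/untreated average dry weight} × 100. The water-diluted emulsion, equivalent to 120 g active ingredient per 10 ares in 100 L, was applied seven days after sowing 20 seeds each into the upper 1 cm of alluvial soil.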

[12] = tested on: Chenopodium album; experiment: as above; conditions: 120 g/10a active ingredient; emulsion sprayed seven days after seeding; evaluated 14 days after treatment
Procedure, shortened: as §4

[13] = tested on: Echinochloa crus-galli; experiment: as above; conditions: 120 g/10a active ingredient; emulsion sprayed seven days after seeding; evaluated 14 days after treatment
Procedure, shortened: as §4

[14] = tested on: southern crabgrass; experiment: as above; conditions: 120 g/10a active ingredient; emulsion sprayed seven days after seeding; evaluated 14 days after treatment
Procedure, shortened: as §4

| Structure (SMILES) | Herbicidal rate (%) Echinochloa crus-galli [1] [%] | Herbicidal rate (%) Scirpus juncoides [2] [%] | Herbicidal rate (%) Lindernia pyxidaria [3] [%] | Herbicidal rate (%) Monochoria vaginalis [3] [%] | Herbicidal rate (%) Echinochloa crus-galli [4] [%] | Herbicidal rate (%) Scirpus juncoides [5] [%] | Herbicidal rate (%) Lindernia pyxidaria [6] [%] | Herbicidal rate (%) Monochoria vaginalis [6] [%] | herbicidal rate, Amaranthus viridis [7] [%] | herbicidal rate, Chenopodium album [8] [%] | herbicidal rate, Echinochloa crus-galli [9] [%] | herbicidal rate, southern crabgrass [10] [%] | herbicidal effect (herbicidal rate), Amaranthus viridis [11] [%] | herbicidal effect (herbicidal rate), Chenopodium album [12] [%] | herbicidal effect (herbicidal rate), Echinochloa crus-galli [13] [%] | herbicidal effect (herbicidal rate), southern crabgrass [14] [%] |
| --- | --- | --- | --- | --- | --- | --- | --- | --- | --- | --- | --- | --- | --- | --- | --- | --- |
| Cc1c(Cc2ccccc2N(S(C)(=O)=O)S(=O)(=O)C(F)(F)F)c(=O)on1C(C)(C)C [Compound 1-889] | 90 | 90 | 90 | 90 | 90 | 90 | 90 | 90 | 90 | 90 | 90 | 90 | 40 | 40 | 90 | 90 |
| CCC(C)n1oc(=O)c(Cc2ccccc2N(S(C)(=O)=O)S(=O)(=O)C(F)(F)F)c1C (centres unmarked) [Compound 1-890] | 90 | 90 | 90 | 90 | 90 | 90 | 90 | 90 | 90 | 90 | 90 | 90 | 40 | 40 | 90 | 90 |
| Cc1c(Cc2ccccc2N(S(C)(=O)=O)S(=O)(=O)C(F)(F)F)c(=O)on1CC(C)C [Compound 1-892] | 100 | 90 | 90 | 90 | 90 | 90 | 80 | 80 | 90 | 80 | 90 | 90 | 40 | 40 | 50 | 40 |
| Cc1c(Cc2ccccc2N(S(C)(=O)=O)S(=O)(=O)C(F)(F)F)c(=O)on1CC(C)(C)C [Compound 1-893] | 90 | 90 | 90 | 90 | 90 | 90 | 90 | 90 | 90 | 90 | 90 | 90 | 40 | 40 | 90 | 90 |
| CCCC(C)n1oc(=O)c(Cc2ccccc2N(S(C)(=O)=O)S(=O)(=O)C(F)(F)F)c1C (centres unmarked) [Compound 1-894] | 100 | 100 | 80 | 60 | 90 | 80 | 70 | 70 | 70 | 60 | 90 | 90 | 60 | 60 | 90 | 90 |
| CCC(C)Cn1oc(=O)c(Cc2ccccc2N(S(C)(=O)=O)S(=O)(=O)C(F)(F)F)c1C (centres unmarked) [Compound 1-895] | 100 | 90 | 90 | 80 | 90 | 90 | 70 | 80 | 80 | 50 | 100 | 100 | 50 | 60 | 80 | 80 |
| COCC(C)n1oc(=O)c(Cc2ccccc2N(S(C)(=O)=O)S(=O)(=O)C(F)(F)F)c1C (centres unmarked) [Compound 1-899] | 90 | 90 | 90 | 90 | 90 | 90 | 90 | 90 | 90 | 90 | 90 | 90 | 40 | 40 | 90 | 90 |
| CSCCn1oc(=O)c(Cc2ccccc2N(S(C)(=O)=O)S(=O)(=O)C(F)(F)F)c1C [Compound 1-900] | 90 | 90 | 90 | 90 | 90 | 90 | 90 | 90 | 90 | 90 | 90 | 90 | 40 | 40 | 90 | 90 |
